Laboratory results from ChEMBL document CHEMBL1201862, “PubChem BioAssay data set” (2004).
The source made the active and inactive calls.

How the values were obtained:
[1] = target: T1, Sentrin-specific protease 7 (Homo sapiens, UniProt Q9BQF6); type: functional;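 further: Luminescence-based dose-response confirmation of ultra-high-throughput screening hits, measuring inhibition of SENP7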
T1 sequence (Q9BQF6 whole entry): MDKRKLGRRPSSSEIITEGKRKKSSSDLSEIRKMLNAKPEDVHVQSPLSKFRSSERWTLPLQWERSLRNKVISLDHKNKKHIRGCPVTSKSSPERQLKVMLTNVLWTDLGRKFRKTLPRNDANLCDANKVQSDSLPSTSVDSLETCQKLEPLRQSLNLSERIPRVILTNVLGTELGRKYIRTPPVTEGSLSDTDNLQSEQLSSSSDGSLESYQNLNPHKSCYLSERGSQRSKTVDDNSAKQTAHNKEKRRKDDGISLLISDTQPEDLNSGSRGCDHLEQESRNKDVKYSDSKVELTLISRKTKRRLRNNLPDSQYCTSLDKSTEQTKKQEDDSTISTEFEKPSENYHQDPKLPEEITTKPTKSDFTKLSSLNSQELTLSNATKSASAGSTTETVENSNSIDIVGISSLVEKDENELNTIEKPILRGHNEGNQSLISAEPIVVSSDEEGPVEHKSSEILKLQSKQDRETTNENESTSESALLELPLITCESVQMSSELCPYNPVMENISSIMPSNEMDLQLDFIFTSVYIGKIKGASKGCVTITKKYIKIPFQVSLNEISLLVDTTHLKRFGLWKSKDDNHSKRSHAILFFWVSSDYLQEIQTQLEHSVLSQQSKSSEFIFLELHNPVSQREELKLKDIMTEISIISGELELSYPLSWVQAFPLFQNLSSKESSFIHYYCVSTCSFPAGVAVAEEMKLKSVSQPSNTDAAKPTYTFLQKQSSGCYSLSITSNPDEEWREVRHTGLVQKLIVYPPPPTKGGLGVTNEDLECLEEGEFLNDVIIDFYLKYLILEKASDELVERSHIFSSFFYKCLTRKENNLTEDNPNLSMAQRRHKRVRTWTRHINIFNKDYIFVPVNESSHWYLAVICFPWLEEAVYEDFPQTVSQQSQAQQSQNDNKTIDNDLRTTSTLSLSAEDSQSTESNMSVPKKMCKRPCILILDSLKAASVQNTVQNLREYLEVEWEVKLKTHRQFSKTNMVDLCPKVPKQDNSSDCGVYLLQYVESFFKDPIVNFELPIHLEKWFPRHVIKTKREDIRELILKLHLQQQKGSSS

Caspase-3 = target: T2, Caspase-3 (Homo sapiens, UniProt P42574); type: functional;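 further: Dose-response selectivity test against caspase-3 for candidate inhibitors of sentrin-specific proteases (SENPs)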
T2 sequence (P42574 whole entry): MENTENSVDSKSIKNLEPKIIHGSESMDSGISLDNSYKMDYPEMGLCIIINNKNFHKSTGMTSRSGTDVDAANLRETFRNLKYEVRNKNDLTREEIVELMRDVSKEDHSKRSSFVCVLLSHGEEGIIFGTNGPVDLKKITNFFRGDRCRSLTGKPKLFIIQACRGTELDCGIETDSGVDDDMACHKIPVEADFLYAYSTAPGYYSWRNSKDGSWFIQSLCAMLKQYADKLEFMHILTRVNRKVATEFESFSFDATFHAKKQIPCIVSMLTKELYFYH

[2] = target: T3, Sentrin-specific protease 6 (Homo sapiens, UniProt Q9GZR1); type: functional;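 further: Luminescence-based dose-response confirmatory assay of SENP6 inhibition, following up an ultra-high-throughput screen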
T3 sequence (Q9GZR1 whole entry): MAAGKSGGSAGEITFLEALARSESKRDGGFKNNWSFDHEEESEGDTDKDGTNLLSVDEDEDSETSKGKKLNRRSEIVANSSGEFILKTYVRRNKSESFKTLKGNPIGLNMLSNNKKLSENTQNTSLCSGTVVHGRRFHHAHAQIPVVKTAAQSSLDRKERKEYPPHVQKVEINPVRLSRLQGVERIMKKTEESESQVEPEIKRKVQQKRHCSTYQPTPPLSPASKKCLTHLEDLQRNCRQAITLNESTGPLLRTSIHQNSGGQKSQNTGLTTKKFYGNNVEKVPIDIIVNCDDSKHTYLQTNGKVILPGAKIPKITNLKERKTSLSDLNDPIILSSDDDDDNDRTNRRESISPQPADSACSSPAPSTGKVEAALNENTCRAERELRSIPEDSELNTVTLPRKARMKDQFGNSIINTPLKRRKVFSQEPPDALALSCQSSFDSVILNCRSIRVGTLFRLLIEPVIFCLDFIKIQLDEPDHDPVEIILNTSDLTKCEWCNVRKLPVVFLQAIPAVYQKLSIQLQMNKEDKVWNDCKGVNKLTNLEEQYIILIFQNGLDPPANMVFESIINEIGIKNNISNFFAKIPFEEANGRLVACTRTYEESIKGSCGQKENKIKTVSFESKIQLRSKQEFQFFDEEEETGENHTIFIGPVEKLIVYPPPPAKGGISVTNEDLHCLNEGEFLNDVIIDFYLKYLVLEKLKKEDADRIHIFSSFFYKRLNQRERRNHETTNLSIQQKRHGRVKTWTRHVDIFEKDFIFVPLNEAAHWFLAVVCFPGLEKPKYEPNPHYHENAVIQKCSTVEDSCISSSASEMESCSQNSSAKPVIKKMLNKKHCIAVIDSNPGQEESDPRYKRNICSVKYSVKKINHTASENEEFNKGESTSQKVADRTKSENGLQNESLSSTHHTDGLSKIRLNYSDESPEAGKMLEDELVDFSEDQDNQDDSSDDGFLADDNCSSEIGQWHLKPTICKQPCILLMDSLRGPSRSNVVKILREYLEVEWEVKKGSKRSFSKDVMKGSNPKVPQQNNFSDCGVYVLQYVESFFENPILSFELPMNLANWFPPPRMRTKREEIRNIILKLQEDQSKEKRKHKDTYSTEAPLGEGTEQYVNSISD

[3] = target: T4, Sentrin-specific protease 8 (Homo sapiens, UniProt Q96LD8); type: functional;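 further: luminescence read-out of SENP8 inhibition, dose-response confirmation following an ultra-high-throughput screen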
T4 sequence (Q96LD8 whole entry): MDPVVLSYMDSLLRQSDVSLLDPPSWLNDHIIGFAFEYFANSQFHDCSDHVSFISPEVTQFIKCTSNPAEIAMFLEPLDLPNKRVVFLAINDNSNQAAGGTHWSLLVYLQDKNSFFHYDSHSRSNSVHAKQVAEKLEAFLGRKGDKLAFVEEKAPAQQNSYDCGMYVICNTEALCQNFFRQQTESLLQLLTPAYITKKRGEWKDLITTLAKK

[4] = target: T5, Polyadenylate-binding protein 1 (Homo sapiens, UniProt P11940); assay: PABP1 MLLE–PAM2 binding inhibitor potency, dose response, biochemical, fluorescence polarization, FITC-PAM2 peptide (AID 602259); type: functional; settings: read-out: IC50_Mean
T5 sequence (P11940 whole entry): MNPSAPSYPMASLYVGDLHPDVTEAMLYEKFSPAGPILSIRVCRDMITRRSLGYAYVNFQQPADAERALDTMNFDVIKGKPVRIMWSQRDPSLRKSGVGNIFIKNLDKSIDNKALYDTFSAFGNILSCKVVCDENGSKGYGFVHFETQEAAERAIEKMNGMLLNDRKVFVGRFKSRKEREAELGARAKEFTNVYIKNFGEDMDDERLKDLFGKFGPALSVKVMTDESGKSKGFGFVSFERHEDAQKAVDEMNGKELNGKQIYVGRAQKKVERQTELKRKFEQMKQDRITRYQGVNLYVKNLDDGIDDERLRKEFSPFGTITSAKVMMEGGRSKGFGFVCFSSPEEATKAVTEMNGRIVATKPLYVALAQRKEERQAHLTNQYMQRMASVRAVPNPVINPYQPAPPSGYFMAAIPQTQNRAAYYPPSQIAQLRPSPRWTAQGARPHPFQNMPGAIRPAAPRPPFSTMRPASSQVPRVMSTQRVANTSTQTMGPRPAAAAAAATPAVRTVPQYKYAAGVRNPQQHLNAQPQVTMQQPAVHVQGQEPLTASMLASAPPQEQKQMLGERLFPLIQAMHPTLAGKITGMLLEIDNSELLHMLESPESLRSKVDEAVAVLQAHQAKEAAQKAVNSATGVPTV

[5] = target: T5, Polyadenylate-binding protein 1; assay: PABP1 MLLE–PAM2 interaction inhibitors, dose response, miRNA deadenylation inhibitor project, biochemical, fluorescence polarization, Cy5-PAM2 peptide, secondary (AID 602260); type: functional; settings: read-out: IC50_Mean
BJ [6] = assay: cytotoxicity toward BJ-TERT fibroblasts, dose response, cell-based, RAS-independent, luminescence (AID 1933); type: functional; settings: Homo sapiens
[7] = cytotoxicity toward DRD oncogenic fibroblasts, dose response, cell-based, non-viral oncogenic, luminescence (AID 1934); type: functional; settings: Homo sapiens
BJ [8] = assay: cells; type: functional, cell-based, Homo sapiens; settings: Homo sapiens, BJ
BJ [9] = assay: cytotoxicity toward BJ-TERT-LT-ST fibroblasts, dose response, cell-based, RAS-independent, luminescence (AID 1935); type: functional; settings: Homo sapiens;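 further: BJ fibroblasts immortalized with TERT plus LT and ST oncogenes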
H4 = assay: Luminescence Cell-Based Dose Response HTS to Identify Activators of 5'UTR Stem-Loop Driven Prion Protein mRNA Translation in H4 Neuroglioblastoma Cells. [Related pubchem assays: 1829 (Project Summary), 1814 (Primary HTS)]; type: functional; settings: Homo sapiens
[10] = Luminescence Cell-Based Dose Confirmation HTS to Identify Activators of 5'UTR Stem-Loop Driven Alpha-Synuclein mRNA Translation in H4 Neuroglioblastoma Cells. [Related pubchem assays: 1829 (Project Summary), 1814 (Primary HTS)]; type: functional
[11] = Luminescence Cell-Based Dose Response HTS to Identify Activators of Luciferase Translation or Activity in H4 […] Cells. [Related pubchem assays: 1829 (Project Summary), 1814 (Primary HTS)]; type: functional
Cytochrome P450 3A4 = Cytochrome P450 3A4 (Homo sapiens, UniProt P08684);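 further: CYP3A4 tested as one member of a cytochrome P450 panel screen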
Cytochrome P450 3A4, sequence (P08684 whole entry): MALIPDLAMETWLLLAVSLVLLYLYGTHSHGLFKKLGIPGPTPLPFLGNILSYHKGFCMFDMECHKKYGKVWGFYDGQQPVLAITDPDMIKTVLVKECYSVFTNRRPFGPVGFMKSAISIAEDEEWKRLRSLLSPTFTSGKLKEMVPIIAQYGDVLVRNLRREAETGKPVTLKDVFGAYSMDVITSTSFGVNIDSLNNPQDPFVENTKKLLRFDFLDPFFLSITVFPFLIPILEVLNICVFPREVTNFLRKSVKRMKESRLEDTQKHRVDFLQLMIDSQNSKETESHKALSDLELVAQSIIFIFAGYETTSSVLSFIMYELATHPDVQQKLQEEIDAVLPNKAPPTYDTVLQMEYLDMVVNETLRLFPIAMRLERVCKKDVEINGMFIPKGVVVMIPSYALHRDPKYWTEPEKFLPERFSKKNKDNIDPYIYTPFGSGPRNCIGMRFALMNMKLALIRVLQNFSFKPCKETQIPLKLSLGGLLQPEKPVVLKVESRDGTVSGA

Streptococcus = assay: Group A Streptococcus viability loss, dose response, counter-screen for streptokinase expression inhibitor project, luminescence, BacTiterGlo (AID 1915); type: functional, organism-based;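 further: potency for reduction of bacterial viability or growth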
[12] = tested on: Streptococcus sp. 'group A'; assay: growth inhibition of control SK(-) GAS strain, dose response, counter-screen for streptokinase expression inhibitor project, luminescence, kanamycin, BacTiterGlo, confirmation (AID 1900); type: functional, organism-based
Cytochrome P450 2D6 = Cytochrome P450 2D6 (Homo sapiens, UniProt P10635);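 further: CYP2D6 member of a cytochrome P450 panel assay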
Cytochrome P450 2D6, sequence (P10635 whole entry): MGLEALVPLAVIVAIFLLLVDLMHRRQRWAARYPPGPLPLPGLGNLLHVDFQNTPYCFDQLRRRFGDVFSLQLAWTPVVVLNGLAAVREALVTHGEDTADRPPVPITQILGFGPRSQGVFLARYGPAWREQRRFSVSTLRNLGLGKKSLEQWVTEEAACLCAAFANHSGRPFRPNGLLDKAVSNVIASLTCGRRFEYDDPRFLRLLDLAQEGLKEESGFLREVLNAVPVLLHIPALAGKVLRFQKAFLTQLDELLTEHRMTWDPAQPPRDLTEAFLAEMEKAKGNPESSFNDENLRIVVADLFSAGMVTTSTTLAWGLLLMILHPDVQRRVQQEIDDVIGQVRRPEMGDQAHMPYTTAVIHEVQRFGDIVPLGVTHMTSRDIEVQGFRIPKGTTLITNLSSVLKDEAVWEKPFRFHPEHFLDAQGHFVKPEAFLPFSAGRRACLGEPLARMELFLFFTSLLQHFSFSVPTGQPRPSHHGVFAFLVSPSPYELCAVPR

Streptokinase A = target: T6, Streptokinase A (Streptococcus pyogenes serotype M1, UniProt P10520); assay: S. pyogenes streptokinase expression inhibitors, potency, dose response, plasminogen activation absorbance, OD405 (AID 1914); type: functional, Streptococcus pyogenes M1 GAS;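 further: secreted streptokinase activity via plasminogen activation per viability signal from cell pellet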
T6 sequence (P10520 whole entry): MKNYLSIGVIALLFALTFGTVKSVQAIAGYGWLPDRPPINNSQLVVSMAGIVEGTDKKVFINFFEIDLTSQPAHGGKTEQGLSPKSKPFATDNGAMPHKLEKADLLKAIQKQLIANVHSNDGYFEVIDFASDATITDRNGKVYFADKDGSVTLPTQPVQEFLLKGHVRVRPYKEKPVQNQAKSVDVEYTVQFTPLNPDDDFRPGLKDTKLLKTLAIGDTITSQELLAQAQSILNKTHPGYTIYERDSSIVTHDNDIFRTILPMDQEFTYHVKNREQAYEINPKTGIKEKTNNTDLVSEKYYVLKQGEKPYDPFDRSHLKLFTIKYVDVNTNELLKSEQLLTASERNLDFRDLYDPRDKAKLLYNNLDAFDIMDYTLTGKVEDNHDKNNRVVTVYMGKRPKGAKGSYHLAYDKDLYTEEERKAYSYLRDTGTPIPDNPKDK

[13] = NIH-3T3 fibroblast cytotoxicity, dose response, cytotoxicity control, cell-based, fluorescence, Alamar Blue, secondary assay (AID 2327); type: functional;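 further: NIH-3T3 mouse fibroblasts cultured with fluconazole at 8 µg/mL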
Protein skinhead-1 = target: T7, Protein skinhead-1 (Caenorhabditis elegans, UniProt P34707); type: functional
T7 sequence (P34707 whole entry): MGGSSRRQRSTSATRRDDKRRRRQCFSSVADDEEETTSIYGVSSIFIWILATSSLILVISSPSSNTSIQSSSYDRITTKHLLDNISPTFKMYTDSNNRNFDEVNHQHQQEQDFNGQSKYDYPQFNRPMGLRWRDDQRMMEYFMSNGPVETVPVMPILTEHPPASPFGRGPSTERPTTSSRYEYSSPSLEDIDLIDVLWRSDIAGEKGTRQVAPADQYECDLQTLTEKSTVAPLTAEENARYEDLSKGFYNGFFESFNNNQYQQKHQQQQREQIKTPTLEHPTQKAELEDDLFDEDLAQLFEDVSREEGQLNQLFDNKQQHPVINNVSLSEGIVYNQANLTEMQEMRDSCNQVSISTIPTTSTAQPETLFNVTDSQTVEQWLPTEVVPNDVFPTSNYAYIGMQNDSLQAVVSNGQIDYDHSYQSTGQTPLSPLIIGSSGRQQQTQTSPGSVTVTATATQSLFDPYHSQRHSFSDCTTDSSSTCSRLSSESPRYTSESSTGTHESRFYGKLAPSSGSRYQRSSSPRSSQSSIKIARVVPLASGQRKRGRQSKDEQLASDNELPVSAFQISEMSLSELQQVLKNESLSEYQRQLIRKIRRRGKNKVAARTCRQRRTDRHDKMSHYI

| Compound | IC50 [1] | IC50 (Caspase-3) | IC50 [2] | IC50 [3] | IC50 [4] | IC50 [5] | also measured |
| --- | --- | --- | --- | --- | --- | --- | --- |
| Nc1[nH]n(-c2ccccc2)c(=O)c1N=Nc1ccccc1 | 4.47 µM (active) | 20.2 µM (active) | > 100 µM (inactive) | > 100 µM (inactive) |  |  |  |
| CCN(CC)S(=O)(=O)c1ccc2c(c1)nc(SCn1nnc3ccccc3c1=O)n2CC |  |  |  |  | > 66 µM (inactive) | > 66 µM (inactive) |  |
| CCOC(=O)c1ccc(Nc2sc(C(=O)c3cccc([N+](=O)[O-])c3)c(N)c2C#N)cc1 |  |  |  |  |  |  | EC50 (BJ [6]): > 150 µM (not active); EC50 [7]: 136 µM (inconclusive); EC50 (BJ [8]): 92.4 µM (inconclusive); EC50 (BJ [9]): 97.4 µM (active) |
| CCSc1nsc(NC(=O)Nc2ccccc2F)n1 | 5.95 µM (active) | 29 µM (active) | > 100 µM (inactive) | 6.84 µM (active) |  |  | EC50 (H4): 16.1 µM (inconclusive); EC50 [10]: 0.283 µM (active); EC50 [11]: 20.4 µM (active) |
| N=C1/C(=C/c2cccs2)C(=O)N=C2SN=C(SCc3ccccc3)N12 | 27.7 µM (active) | 50.3 µM (active) | 11.1 µM (active) | 32.6 µM (active) |  |  | AC50 (Cytochrome P450 3A4): 14.1 µM (inconclusive); EC50 (Streptococcus): 30 µM (active); EC50 [12]: 3.65 µM (active); AC50 (Cytochrome P450 2D6): 25.1 µM (inconclusive); EC50 (Streptokinase A): 5.78 µM (active) |
| O=C(Nc1nc(=O)c2ccccc2s1)c1ccccc1 | 6.3 µM (active) | 4.38 µM (active) | 60.6 µM (active) | > 100 µM (inactive) |  |  | EC50 [13]: 63.1 µM (active) |
| O=C(Nc1ccc(Cl)cc1)Nc1nccs1 | 7.33 µM (active) | 21.7 µM (active) | 14.6 µM (active) | 15.5 µM (active) |  |  | AC50 (Cytochrome P450 2D6): 31.6 µM (inconclusive) |
| O=CNc1ccc2c3c(cccc13)-c1ccccc1-2 |  |  |  |  | 37.1 µM (inactive) | 33.1 µM (inactive) |  |
| O=C(NN=Cc1sc(=O)[n-]c1-[n+]1ccccc1)c1ccccc1O |  |  |  |  | 35.2 µM (inactive) | > 66 µM (inactive) |  |
| CCCc1nc2ccc(Cl)cn2c1Cc1ccsc1 |  |  |  |  | 59.3 µM (inactive) | 51.2 µM (inactive) |  |
| Cc1nc(NC(=S)NC(=O)c2ccccc2)sc1C(=O)N(C)C |  |  |  |  | > 66 µM (inactive) | > 66 µM (inactive) |  |
| COc1cccc(C(=O)OCC(=O)c2ccc(Br)s2)c1 | 10.3 µM (active) | 26.8 µM (active) | 14.6 µM (active) | 21.6 µM (active) |  |  |  |
| c1ccc2nc(-c3ccc(-n4ccnc4)cc3)ccc2c1 | 5.47 µM (active) | 8.83 µM (active) | 10.8 µM (active) | 13.1 µM (active) |  |  | IC50 (Protein skinhead-1): 7.87 µM (active) |
